Reference: patent US10407428B2, “Spiro-isoquinoline-1,4′-piperidine compounds having multimodal activity against pain” (ESTEVE PHARMACEUTICALS, S.A., priority 2014, dated 2019)

Molecular target: human σ1 receptor and human μ-opioid receptor
Test: Human σ1 receptor radioligand assay and human μ-opioid receptor radioligand assay (μ and σ1 dual binding)
Design: key to μ and σ1 dual binding: +: Both Ki-μ and Ki-σ1>=500 nM; ++: One Ki<500 nM while the other Ki is >=500 nM; +++: Both Ki-μ and Ki-σ1<500 nM; ++++: Both Ki-μ and Ki-σ1<100 nM
Conditions: not given

SMILES	Ki	μ and σ1 dual binding
FC(F)(F)CN1CCc2ccccc2C12CCN(CCc1ccncc1)CC2 [Example 136, 1′-(2-(pyridin-4-yl)ethyl)-2-(2,2,2-trifluoroethyl)-3,4-dihydro-2H-spiro[isoquinoline-1,4′-piperidine]]	< 500 nM	
FC(F)(F)CN1CCc2ccccc2C12CCN(CCc1cccnc1)CC2 [Example 137, 1′-(2-(pyridin-3-yl)ethyl)-2-(2,2,2-trifluoroethyl)-3,4-dihydro-2H-spiro[isoquinoline-1,4′-piperidine]]	< 500 nM	
CN1Cc2ccccc2C12CCN(CCc1ccccc1)CC2 [Example 140, 2-Methyl-1′-phenethylspiro[isoindoline-1,4′-piperidine]]	< 500 nM	
CN1Cc2ccccc2C12CCN(CC1CCOCC1)CC2 [Example 141, 2-Methyl-1′-((tetrahydro-2H-pyran-4-yl)methyl)spiro[isoindoline-1,4′-piperidine]]		++
CN1CCc2ccccc2C12CCN(C[C@H](O)c1ccncc1F)CC2 [Example 142, (R)-1-(3-fluoropyridin-4-yl)-2-(2-methyl-3,4-dihydro-2H-spiro[isoquinoline-1,4′-piperidine]-1′-yl)ethanol]	< 500 nM	
CN1CCc2ccccc2C12CCN(C[C@@H](O)c1ccncc1F)CC2 [Example 143, (S)-1-(3-fluoropyridin-4-yl)-2-(2-methyl-3,4-dihydro-2H-spiro[isoquinoline-1,4′-piperidine]-1′-yl)ethanol]	< 500 nM	
CCN(C(=O)CN1CCC2(CC1)c1ccccc1CCN2CC)C(C)C [Example 144, N-ethyl-2-(2-ethyl-3,4-dihydro-2H-spiro[isoquinoline-1,4′-piperidine]-1′-yl)-N-isopropylacetamide]	< 500 nM	
CCN1CCc2ccccc2C12CCN(CC(=O)N1CCC(F)(F)CC1)CC2 [Example 145, 1-(4,4-difluoropiperidin-1-yl)-2-(2-ethyl-3,4-dihydro-2H-spiro[isoquinoline-1,4′-piperidine]-1′-yl)ethanone]	< 500 nM	
CCN1CCc2ccccc2C12CCN(CC(O)c1ccncc1)CC2 (stereo not shown) [Example 146, 2-(2-ethyl-3,4-dihydro-2H-spiro[isoquinoline-1,4′-piperidine]-1′-yl)-1-(pyridin-4-yl)ethanol]		++
CCN1CCc2ccccc2C12CCN(CC(=O)N1CCOCC1)CC2 [Example 147, 2-(2-ethyl-3,4-dihydro-2H-spiro[isoquinoline-1,4′-piperidine]-1′-yl)-1-morpholinoethanone]	< 500 nM	
CCN1CCc2ccccc2C12CCN(CCN1CCOCC1)CC2 [Example 148, 4-(2-(2-ethyl-3,4-dihydro-2H-spiro[isoquinoline-1,4′-piperidine]-1′-yl)ethyl)morpholine]		++
CCN1CCc2ccccc2C12CCN(CC(=O)N1CCS(=O)(=O)CC1)CC2 [Example 149, 2-(2-ethyl-3,4-dihydro-2H-spiro[isoquinoline-1,4′-piperidine]-1′-yl)-1-(1,1-dioxo-thiomorpholin-4-yl)ethanone]		++
CCN1CCc2ccccc2C12CCN(CC(=O)N1CCC(F)CC1)CC2 [Example 150, 2-(2-ethyl-3,4-dihydro-2H-spiro[isoquinoline-1,4′-piperidine]-1′-yl)-1-(4-fluoropiperidin-1-yl)ethanone]	< 500 nM	
CCN1CCc2ccccc2C12CCN(CC(=O)N1CCCC(F)(F)C1)CC2 [Example 151, 1-(3,3-difluoropiperidin-1-yl)-2-(2-ethyl-3,4-dihydro-2H-spiro[isoquinoline-1,4′-piperidine]-1′-yl)ethanone]	< 500 nM	
CCC(CC)N(C)C(=O)CN1CCC2(CC1)c1ccccc1CCN2CC [Example 152, 2-(2-ethyl-3,4-dihydro-2H-spiro[isoquinoline-1,4′-piperidine]-1′-yl)-N-methyl-N-(pentan-3-yl)acetamide]		++
CCN1CCc2ccccc2C12CCN(CC(=O)N(C)C)CC2 [Example 153, 2-(2-ethyl-3,4-dihydro-2H-spiro[isoquinoline-1,4′-piperidine]-1′-yl)-N,N-dimethylacetamide]		++
CCN(C(=O)CN1CCC2(CC1)c1ccccc1CCN2CC)C1CC1 [Example 154, N-cyclopropyl-N-ethyl-2-(2-ethyl-3,4-dihydro-2H-spiro[isoquinoline-1,4′-piperidine]-1′-yl)acetamide]	< 500 nM	
CCN(CC)C(=O)CN1CCC2(CC1)c1ccccc1CCN2CC [Example 155, N,N-diethyl-2-(2-ethyl-3,4-dihydro-2H-spiro[isoquinoline-1,4′-piperidine]-1′-yl)acetamide]	< 500 nM	

Same assay, conditions: combined class for Ki-μ ([3H]-DAMGO, CHO-K1 membranes) and Ki-σ1 ([3H](+)-pentazocine, HEK-293 membranes)

SMILES	Ki
CN1CC(C)(C)c2ccccc2C12CCN(CC(=O)N1CCCCC1)CC2 [Example 138, 1-(Piperidin-1-yl)-2-(2,4,4-trimethyl-3,4-dihydro-2H-spiro[isoquinoline-1,4′-piperidine]-1′-yl)ethanone]	≥ 500 nM
CN1Cc2ccccc2C12CCN(CC(=O)N1CCC(F)(F)CC1)CC2 [Example 156, 1-(4,4-difluoropiperidin-1-yl)-2-(2-methylspiro[isoindoline-1,4′-piperidine]-1′-yl)ethanone]	≥ 500 nM
CCN(C(=O)CN1CCC2(CC1)c1ccccc1CN2C)C(C)C [Example 157, N-ethyl-N-isopropyl-2-(2-methylspiro[isoindoline-1,4′-piperidine]-1′-yl)acetamide]	≥ 500 nM
CN1CCc2ccccc2C12CCN(CCNCCO)CC2 [Example 160, 2-(2-(2-Methyl-3,4-dihydro-2H-spiro[isoquinoline-1,4′-piperidine]-1′-yl)ethylamino)ethanol]	≥ 500 nM
